Results on 37 compounds are retold here after patent US10696672B2 (Pliant Therapeutics, Inc., priority 2016, dated 2020).

SMILES strings stand for the structures.

Chain of recombinant human integrin αvβ6 (P06756 31-992): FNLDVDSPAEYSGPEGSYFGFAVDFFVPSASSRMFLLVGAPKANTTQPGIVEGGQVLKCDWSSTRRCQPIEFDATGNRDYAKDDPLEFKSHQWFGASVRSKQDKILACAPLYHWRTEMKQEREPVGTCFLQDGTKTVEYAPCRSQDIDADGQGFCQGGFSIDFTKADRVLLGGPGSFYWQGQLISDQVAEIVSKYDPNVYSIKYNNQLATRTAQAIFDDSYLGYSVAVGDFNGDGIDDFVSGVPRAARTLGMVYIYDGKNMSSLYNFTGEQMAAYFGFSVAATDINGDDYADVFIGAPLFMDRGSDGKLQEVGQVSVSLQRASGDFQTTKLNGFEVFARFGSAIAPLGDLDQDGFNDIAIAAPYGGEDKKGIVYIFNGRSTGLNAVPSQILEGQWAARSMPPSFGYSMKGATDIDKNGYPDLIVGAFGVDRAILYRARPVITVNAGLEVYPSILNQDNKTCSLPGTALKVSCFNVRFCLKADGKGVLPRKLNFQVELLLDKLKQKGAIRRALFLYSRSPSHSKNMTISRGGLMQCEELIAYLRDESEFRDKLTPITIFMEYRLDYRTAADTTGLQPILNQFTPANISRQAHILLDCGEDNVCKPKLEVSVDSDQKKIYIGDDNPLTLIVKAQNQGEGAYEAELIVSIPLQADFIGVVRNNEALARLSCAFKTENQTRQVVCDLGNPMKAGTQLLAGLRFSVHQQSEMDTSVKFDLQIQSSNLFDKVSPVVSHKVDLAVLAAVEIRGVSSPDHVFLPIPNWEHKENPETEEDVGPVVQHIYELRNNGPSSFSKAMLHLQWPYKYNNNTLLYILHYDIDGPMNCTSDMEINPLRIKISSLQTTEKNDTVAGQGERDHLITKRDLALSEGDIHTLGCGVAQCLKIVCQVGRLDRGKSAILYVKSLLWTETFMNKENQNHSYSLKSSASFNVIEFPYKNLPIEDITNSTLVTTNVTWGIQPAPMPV
Chain of recombinant human integrin αvβ6 (P18564 22-707): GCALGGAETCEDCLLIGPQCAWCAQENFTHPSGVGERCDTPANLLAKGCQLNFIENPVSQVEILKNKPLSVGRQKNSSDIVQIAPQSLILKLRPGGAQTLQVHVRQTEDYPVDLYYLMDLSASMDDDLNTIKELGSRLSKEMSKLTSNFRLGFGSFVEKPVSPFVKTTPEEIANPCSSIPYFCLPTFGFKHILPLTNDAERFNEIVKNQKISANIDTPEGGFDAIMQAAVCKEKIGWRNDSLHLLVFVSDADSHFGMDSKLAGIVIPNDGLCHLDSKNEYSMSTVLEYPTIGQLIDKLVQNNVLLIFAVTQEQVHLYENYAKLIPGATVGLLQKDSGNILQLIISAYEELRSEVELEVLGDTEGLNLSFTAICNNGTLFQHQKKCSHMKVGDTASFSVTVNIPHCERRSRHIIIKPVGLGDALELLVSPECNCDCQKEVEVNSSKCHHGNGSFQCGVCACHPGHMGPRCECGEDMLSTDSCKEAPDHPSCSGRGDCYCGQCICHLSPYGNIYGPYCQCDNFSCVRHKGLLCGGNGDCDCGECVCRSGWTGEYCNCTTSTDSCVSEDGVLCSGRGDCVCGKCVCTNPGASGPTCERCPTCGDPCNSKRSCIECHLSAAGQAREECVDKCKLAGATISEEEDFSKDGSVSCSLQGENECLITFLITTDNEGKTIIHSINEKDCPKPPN

For the experiment, the target named is recombinant human integrin αvβ6 (Homo sapiens (Human), UniProt P06756+P18564). Put plainly: Solid phase integrin αvβ6 binding assay. Particulars: plate-coated integrin; recombinant TGFβ1 LAP 0.67 ug/ml as ligand; 2 hours at 25° C.; read-out: αvβ6 Inhibition IC50 (nM) - range. As for the experimental part:
Example B1—Solid Phase Integrin αvβ6 Binding Assay
Microplates were coated with recombinant human integrin αvβ6 (2 ug/ml) in PBS (100 ul/well 25° C., overnight). The coating solution was removed, washed with wash buffer (0.05% Tween 20; 0.5 mM MnCl2; in 1×TBS). Plate was blocked with 200 ul/well of Block Buffer (1% BSA; 5% sucrose; 0.5 mM MnCl2; in 1×TBS) at 37° C. for 2 h. Dilutions of testing compounds and recombinant TGFβ1 LAP (0.67 ug/ml) in binding buffer (0.05% BSA; 2.5% sucrose; 0.5 mM MnCl2; in 1×TBS) were added. The plate was incubated for 2 hours at 25° C., washed, and incubated for 1 hour with Biotin-Anti-hLAP. Bound antibody was detected by peroxidase-conjugated streptavidin. The IC50 values for testing compounds were calculated by a four-parameter logistic regression.
The compounds tested were compound samples prepared according to procedures described in the Synthetic Examples section, with the stereochemical purity as indicated in the Examples indicated.
With `O=C(N[C@@H](CCN1CC[C@@H](CCc2ccc3c(n2)NCCC3)C1)C(=O)O)[C@H]1CCN(c2ccccn2)C1` [Compound 46], the IC50 was below 50 nM.
`CC(C)(C(=O)N[C@@H](CCN1CC[C@@H](OCCc2ccc3c(n2)NCCC3)C1)C(=O)O)c1ccccc1` [Compound 118]: the IC50 lay in the range of 250 to 1000 nM.
Then `CCC(CC)C(=O)N[C@@H](CCN1C2CCC1C(CCc1ccc3c(n1)NCCC3)C2)C(=O)O` (stereo partly shown) [Compound 145], with above 1000 nM; and `O=C(O)[C@H](CCN1CC[C@@H](CCc2ccc3c(n2)NCCC3)C1)NC(=O)[C@@H]1CCCN1c1ccccc1` [Compound 43], with below 50 nM; and `Cn1nccc1-c1cccc(C(=O)N[C@@H](CCN2CC[C@@H](CCc3ccc4c(n3)NCCC4)C2)C(=O)O)c1` [Compound 57], with below 50 nM.
The value for `O=C(N[C@@H](CCN1CC[C@@](F)(CCc2ccc3c(n2)NCCC3)C1)C(=O)O)c1c(Cl)cccc1Cl` [Compound 63] was 50 to 250 nM.
Consider `CCC(CC)C(=O)N[C@@H](CCN1CCC[C@@](F)(CCc2ccc3c(n2)NCCC3)C1)C(=O)O` [Compound 94], for which the IC50 was in the range of 50 to 250 nM.
The value for `O=C(N[C@@H](CCN1CC[C@@H](OCc2ccc3c(n2)NCCC3)C1)C(=O)O)c1ccccc1` [Compound 112] was above 1000 nM.
The value for `O=C(N[C@@H](CCN1C2CCC1C(CCc1ccc3c(n1)NCCC3)C2)C(=O)O)c1cc(F)cc(C(F)(F)F)c1` (stereo partly shown) [Compound 140] was above 1000 nM; that for `Cc1cc(C)n(-c2cccc(C(=O)N[C@@H](CCN3CC[C@@H](CCc4ccc5c(n4)NCCC5)C3)C(=O)O)c2)n1` [Compound 13a, (S)-2-(3-(3,5-dimethyl-1H-pyrazol-1-yl)benzamido)-4-((R)-3-(2-(5,6,7,8-tetrahydro-1,8-naphthyridin-2-yl)ethyl)pyrrolidin-1-yl)butanoic acid] was below 50 nM; that for `CC(C)Cn1cc2c(C(=O)N[C@@H](CCN3CC[C@@H](CCc4ccc5c(n4)NCCC5)C3)C(=O)O)cccc2n1` [Compound 72] was below 50 nM.
On to `COCCOc1cccc(C(=O)N[C@@H](CCN2CCC[C@@](F)(CCc3ccc4c(n3)NCCC4)C2)C(=O)O)c1` [Compound 100], for which the IC50 is 50 to 250 nM.
Take `CC(C)(C)C(=O)N[C@H](CCN1CC[C@@H](CCc2ccc3c(n2)NCCC3)C1)C(=O)O` [Compound 1c, (R)-2-pivalamido-4-((R)-3-(2-(5,6,7,8-tetrahydro-1,8-naphthyridin-2-yl)ethyl)pyrrolidin-1-yl)butanoic acid]: the IC50 is below 50 nM.
With `O=C(N[C@H](CCN1CC[C@@H](CCc2ccc3c(n2)NCCC3)C1)C(=O)O)c1cccc(-c2cncs2)c1` [Compound 84], the IC50 is below 50 nM.
For `O=C(O)[C@H](CCN1CC[C@@H](CCc2ccc3c(n2)NCCC3)C1)NC(=O)[C@@H]1CCCN1CC1CCC1` [Compound 92], the IC50 was below 50 nM.
Take `Cn1cc(-c2nn(C)c3c(C(=O)N[C@@H](CCN4CC[C@@H](CCc5ccc6c(n5)NCCC6)C4)C(=O)O)cccc23)cn1` [Compound 102]: the 50% inhibitory concentration (IC50) was 250 to 1000 nM.
Then `CC1(C(=O)N[C@@H](CCN2CC[C@@H](CCc3ccc4c(n3)NCCC4)C2)C(=O)O)CCOCC1` [Compound 22a, (S)-2-(4-methyltetrahydro-2H-pyran-4-carboxamido)-4-((R)-3-(2-(5,6,7,8-tetrahydro-1,8-naphthyridin-2-yl)ethyl)pyrrolidin-1-yl)butanoic acid], with 50 to 250 nM.
Then `O=C(N[C@@H](CCN1CC[C@@H](CCc2ccc3c(n2)NCCC3)C1)C(=O)O)c1ccc2c(cnn2C(F)F)c1` [Compound 30a, (S)-2-(1-(difluoromethyl)-1H-indazole-5-carboxamido)-4-((R)-3-(2-(5,6,7,8-tetrahydro-1,8-naphthyridin-2-yl)ethyl)pyrrolidin-1-yl)butanoic acid], with below 50 nM; and `Cc1cc(C)n(-c2cccc(C(=O)N[C@@H](CCN3CC(CCc4ccc5c(n4)NCCC5)CC(F)(F)C3)C(=O)O)c2)n1` (stereo partly shown) [Compound 42], with 250 to 1000 nM; and `O=C(NC(CCN1CC[C@@H](CCc2ccc3c(n2)NCCC3)C1)C(=O)O)c1ccc2ocnc2c1` (stereo partly shown) [31a and 31c], with below 50 nM.
On to `Cn1cc(-c2cccc(C(=O)N[C@H](CCN3CC[C@@H](CCc4ccc5c(n4)NCCC5)C3)C(=O)O)c2)cn1` [Compound 87], for which the IC50 was below 50 nM.
Consider `O=C(N[C@@H](CCN1CCC[C@@](F)(CCc2ccc3c(n2)NCCC3)C1)C(=O)O)c1cc(F)cc(C(F)(F)F)c1` [Compound 105], for which the IC50 lay within 50 to 250 nM.
Regarding `O=C(O)[C@H](CCN1CC[C@@H](CCc2ccc3c(n2)NCCC3)C1)NC(=O)[C@@H]1CCN1Cc1ccccc1` [Compound 81], the IC50 lay within 50 to 250 nM.
In the case of `O=C(NC(CCN1CC[C@@H](CCc2ccc3c(n2)NCCC3)C1)C(=O)O)c1c(Cl)cncc1Cl` (stereo partly shown) [20a and 20c], the IC50 is below 50 nM.
The value for `O=C(N[C@H](CCN1CC[C@@H](CCc2ccc3c(n2)NCCC3)C1)C(=O)O)c1cccc(-c2cscn2)c1` [Compound 85] was below 50 nM; that for `O=C(N[C@@H](CCN1CCC[C@](F)(CCc2ccc3c(n2)NCCC3)C1)C(=O)O)c1cccc(F)c1Cl` [Compound 103] was below 50 nM.
Then `CC(C)(C(=O)N[C@@H](CCN1CC[C@@H](CCc2ccc3c(n2)NCCC3)C1)C(=O)O)c1cccnc1` [Compound 37], with below 50 nM.
Then `CC(=O)N1CCN(CC[C@H](NC(=O)c2ccccc2)C(=O)O)C[C@@H]1CCc1ccc2c(n1)NCCC2` [Compound 116], with above 1000 nM; and `O=C(N[C@@H](CCN1CC[C@@H](CCc2ccc3c(n2)NCCC3)C1)C(=O)O)c1cc(OC(F)(F)F)ccc1Cl` [Compound 11a], with below 50 nM.
In the case of `O=C(N[C@@H](CCN1CC[C@@H](CCc2ccc3c(n2)NCCC3)C1)C(=O)O)c1cccnc1` [Compound 19a, (S)-2-(nicotinamido)-4-((R)-3-(2-(5,6,7,8-tetrahydro-1,8-naphthyridin-2-yl)ethyl)pyrrolidin-1-yl)butanoic acid], the IC50 fell in the range of 50 to 250 nM.
Then `Cn1ncc2ccc(C(=O)N[C@@H](CCN3CC[C@@H](CCc4ccc5c(n4)NCCC5)C3)C(=O)O)cc21` [Compound 24a, (S)-2-(1-methyl-1H-indazole-6-carboxamido)-4-((R)-3-(2-(5,6,7,8-tetrahydro-1,8-naphthyridin-2-yl)ethyl)pyrrolidin-1-yl)butanoic acid], with below 50 nM; and `O=C(O)[C@H](CCN1CC[C@@H](CCc2ccc3c(n2)NCCC3)C1)NC(=O)[C@@H]1CCCCN1C(=O)C1CCC1` [Compound 74], with below 50 nM.
With `CCCCC(=O)N1CCCC[C@H]1C(=O)N[C@@H](CCN1CC[C@@H](CCc2ccc3c(n2)NCCC3)C1)C(=O)O` [Compound 73], the IC50 was below 50 nM.
The value for `CC(C)(C)OC(=O)N[C@@H](CCN1CC(CCc2ccc3c(n2)NCCC3)CC(F)(F)C1)C(=O)O` (stereo partly shown) [Compound 40] was 250 to 1000 nM; that for `Cc1cc(C)n(-c2cccc(C(=O)NC(CCN3CC[C@@H](CCc4ccc5c(n4)NCCC5)C3)C(=O)O)c2)n1` (stereo partly shown) [13a and 13c] was below 50 nM.
As for `CC(C)n1cc2c(C(=O)N[C@@H](CCN3CC[C@@H](CCc4ccc5c(n4)NCCC5)C3)C(=O)O)cccc2n1` [Compound 71], the IC50 was below 50 nM.
`O=C(N[C@@H](CCN1CC[C@@H](CCc2ccc3c(n2)NCCC3)C1)C(=O)O)c1cccc(F)c1F` [Compound 67]: the concentration for half-maximal inhibition (IC50) was below 50 nM.

The term IC50 denotes the midpoint of a concentration-inhibition curve.
